# Results as given in PMC11240878, “Synthesis, enzyme inhibition assay, and molecular modeling study of novel pyrazolines linked to 4-methylsulfonylphenyl scaffold: antitumor activity and cell cycle analysis” (RSC Advances, 2024).
# Tests used:
# Assay type in all cases: cell-based, human
# TK-10 = assay: NCI single-dose GI%, renal; conditions: TK-10, renal; 10.0 μM in one dose
# HS 578T = assay: NCI single-dose GI%, breast; conditions: 10.0 μM in one dose
# A498 = assay: NCI single-dose GI%, renal; conditions: 10.0 μM in one dose
# SW-620 = assay: NCI single-dose GI%, colon; conditions: SW-620, colon; 10.0 μM in one dose
SMILES,GI% (TK-10) [%],GI% (HS 578T) [%],GI% (A498) [%],GI% (SW-620) [%]
"CS(=O)(=O)c1ccc(C(=O)N2N=C(c3ccccc3)CC2c2ccccc2O)cc1 (stereo not shown) [Compound 18h, (5-(2-Hydroxyphenyl)-3-phenyl-4,5-dihydro-1H-pyrazol-1-yl)(4-(methylsulfonyl)phenyl)methanone]",25,,,
"Cc1ccc(C2=NN(C(=O)c3ccc(S(C)(=O)=O)cc3)C(c3ccc(C)cc3)C2)cc1 (stereo not shown) [Compound 18g, (3,5-Bis(4-tolyl)-4,5-dihydro-1H-pyrazol-1-yl)(4-(methylsulfonyl)phenyl)methanone]",,15,16,25
